Assay results reported in patent EP0502205A1, “CHALCONE DERIVATIVE AND ULTRAVIOLET SCREENING COSMETIC” (NIPPON HYPOX LABORATORIES INCORPORATED, priority 1990, dated 1992).

What was measured:
[1] = Ultraviolet light absorption maximum and absorbance in ethanol solution; type: physicochemical; settings: for Absorbance 300 nm / Absorbance 350 nm / Absorbance UVmax: concentration of 10 μg/ml in an ethanol solution; for Absorbance UVmax: at UVmax; for UVmax: ultraviolet light absorption maximum
[2] = test system: notal skins of Hartley guinea pigs; experiment: Safety test (ointment on skin under adhesive plaster, histological observation); type: in vivo; settings: 10 mg ointment containing 5 wt.%, covered with adhesive plaster for 24 hours or 72 hours
Description: 10 milligrams of the ointment containing 5 wt.% of the known chalcone derivative of Example 14, obtained in Example 16, was applied to the notal skins of Hartley guinea pigs, and the applied portions were covered with an adhesive plaster for 24 hours or 72 hours.

[3] = test system: sunburn; experiment: Ultraviolet screening test (ointment on skin exposed to direct sunlight); type: in vivo, normally healthy persons; settings: ointment containing 1 wt.%, exposure time outdoors 1 hour
[4] = test system: sunburn; experiment: as above; type: in vivo, normally healthy persons; settings: ointment containing 1 wt.%, exposure time outdoors 1 hour; remark: listed apart in the source
Description: 10 Milligrams of the ointment containing 1 wt.% of the known chalcone derivative in Example 14, obtained in Example 15, 10 mg of an ointment containing 1 wt.% of p-aminobenzoic acid as a control, obtained in the same manner as in Example 15 except for the use of p-aminobenzoic acid in place of the above known chalcone derivative (to be abbreviated as AO in Table 3 which will follow), and 10 mg of the same hydrophilic ointment as that used in Example 15 (to be abbreviated as HO in Table 2 which will follow) were respectively applied to the femoral region of each of normally healthy persons (10 persons) such that these became circular forms having nearly the same size. Then, these applied portions were exposed to direct sunlight outdoors in fine weather for 2 hours and 30 minutes.
After the exposure, each applied portion was visually observed. The portions where clear sunburn was recognized were taken as +, the portions where slight sunburn was recognized were taken as ±, and the portions where almost no change was recognized were taken as -. The test substances were so evaluated on their ultraviolet screening effects.
The ointment containing 1 wt.% of the novel chalcone derivative of Example 1, obtained in Example 15, the ointment containing 1 wt.% of the novel chalcone derivative of Example 1, the ointment containing 1 wt.% of the novel chalcone derivative of Example 2, the ointment containing 1 wt.% of the novel chalcone derivative of Example 4, the ointment containing 1 wt.% of the novel chalcone derivative of Example 6 and the ointment containing 1 wt.% of the known chalcone derivative of Example 9 were respectively similarly tested on their ultraviolet screening effects. However, the exposure time outdoors in fine weather was set for 1 hour. […]

[5] = test system: lipid peroxidation reaction of liver microsome; experiment: Cell protection activity test (inhibition of lipid peroxidation, thiobarbituric acid method); type: biochemical, rat; settings: 37° C 20 minutes, n = 3 - 5; for Inhibition ratio 10^-5 concentration: 10 µM; for Inhibition ratio 10^-4M concentration: final concentration 10^-4M, 100 µM
Description: Cell impairment caused by a radical reaction of an organic compound is known as one of optical affections on the skin.
First, rat liver microsome was obtained by a conventional method, and then, suspended in 1.15 % KCl to prepare a microsome suspension.
Then, the above microsome suspension in an amount of 2 mg as protein was added to a tris-HCl buffer (pH 7.4) containing NADPH (final concentration 0.2 mM), ADP (final concentration 1 mM) and FeCl₃ (final concentration 10 µM). And, 10 µl of a dimethylformamide (DMF) solution of a test compound was added so that the total amount was 1 ml, and the resultant mixture was warmed at 37° C for 20 minutes. The test compound was added such that the final concentration became 10⁻⁴M or 10⁻⁵M.
Thereafter, the amount of formed peroxidation lipid was measured by a thiobarbituric acid method. The inhibition activity of the test compound is expressed in terms of an inhibition ratio (%) in comparison with a control group. […] In addition, in the control group, 10 µl of DMF was used in place of 10 µl of the DMF solution of the test compound.

[6] = test system: inflammation induced by an egg-white albumin-adjuvant system; experiment: Anti-inflammatory activity test (swelling of subplantar region of right hind paw); type: in vivo, SD rats; settings: oral, 10 mg/weight-kg, 0.5 hour before inflammation inducer; measured 0.5, 1, 2, 3 and 4 hours after; Fig. 1
Description: As a test group, a comparison group and a control group, 5 male SD rats weighing 180 to 220 g were used per group. Each rat was measured for a size (volume) of the subplantar region of the right hind paw.
This aluminum hydroxide was used as an adjuvant. Per rat, a solution obtained by suspending 4 mg of the adjuvant and 0.2 mg of egg-white albumin in 0.1 ml of pertussis vaccine was prepared as an inflammation inducer.
0.5 Hour after the administration, the inflammation inducer was intracutaneously administered into the subplantar region of the right hind paw of each rat to induce swelling.
Then, 0.5, 1, 2, 3 and 4 hours after the administration of the inflammation inducer, each rat was measured for a size (volume) of the subplantar region of the right hind paw by volumetry. […] [formula] Ps: Measurement value of volume of subplantar region at a measurement time (average of the group). Po: Measurement value of volume of subplantar region before administration of inflammation inducer (average of the group).
Each rat of the control group was orally administered with a 10 % Nikkol-containing physiological saline solution in place of the 10 % Nikkol-containing physiological saline solution containing 2',4'-dihydroxychalcone. Thereafter, the same procedures as those for the test group were repeated to determine the swelling as a group.

[7] = test system: rat abdominal cavity exudate mast cell; experiment: Anti-allergic activity test (inhibition of free histamine from mast cell, concanavalin A as freeing agent); type: cell-based, SD rat; settings: 10 min, concentration of 0.03 mM, n = 5, read-out: free histamine inhibition ratio
Description: At first, an abdominal cavity exudate mast cell of an SD rat was obtained by a conventional method. Then, the above-obtained abdominal cavity mast cell was floated on a Locke solution, and a test substance in a predetermined concentration and phosphatidylcerine (final concentration 3 µg/ml) were added. The mixture was warmed up to 37° C, and after concanavalin A as a freeing agent was added, the mixture was maintained at 37° C for 10 minutes. Thereafter, the reaction solution was centrifugally separated to a sediment portion and a supernatant portion, and the histamine amount of each of these portions was quantitatively determined by an orthophthalaldehyde method. In addition, as a test substance, a dimethylformamide solution (final concentration 0.03 mM) of 3 mM 2',4'-dihydroxychalcone and a DMF solution (final concentration 0.03 mM) of an anti-inflammatory drug (Azelastine) were used. The free histamine ratio was calculated on the basis of the following equation. In control, the solvent alone was added. [formula] Ps: Histamine amount in sediment portion Pr: Histamine amount in supernatant portion. The free histamine inhibition ratio of the test substance was calculated on the basis of the following equation. [formula] S: Free histamine ratio when test substance is added. C: Free histamine ratio when no test substance is added (control). […]

SMILES	Absorbance 300 nm [1]	Absorbance 350 nm [1]	Absorbance UVmax [1]	UVmax [1] [nm]	histological comparison of skin of applied portion and skin of normal portion [2]	numbers of persons + (Almost no change) [3] [persons]	numbers of persons + (Clear sunburn was recognized) [4] [persons]	Inhibition ratio 10^-5 concentration [5]	Inhibition ratio 10^-4M concentration [5]	inhibition of swelling [6]	inhibition at 30 µM [7] [%]
O=C(/C=C/c1cccc(F)c1)c1ccc(O)cc1O [Example 1, 2',4'-dihydroxy-3-fluoro-chalcone]	0.70~0.85	0.70~0.85	0.80~0.95	317	no histological difference	4	0	90 % or more	90 % or more		
O=C(/C=C/c1ccc(C(F)(F)F)cc1)c1ccc(O)cc1O [Example 5]	0.60~0.75	0.50~0.65	0.60~0.80	305				15%	90 % or more		
COc1ccc2c(c1)c(CC(=O)O)c(C)n2C(=O)c1ccc(Cl)cc1 [indomethacin, reference compound]										significantly inhibited swelling	
O=C(/C=C/c1ccc(F)cc1)c1ccc(O)cc1O [Example 4]	0.50~0.65	0.60~0.70	0.55~0.70	346		4	0	90 % or more	90 % or more		
CN1CCCC(n2nc(Cc3ccc(Cl)cc3)c3ccccc3c2=O)CC1 (stereo not drawn) [Azelastine, reference compound]											20.8 ± 4.2
O=C(/C=C/c1ccccc1F)c1ccc(O)cc1O [Example 3]	0.70~0.85	0.80~0.95	0.80~1.10	320				90 % or more	90 % or more		
O=C(/C=C/c1cccc(F)c1)c1ccc(O)cc1 [Example 2]	0.90~1.00	0.45~0.55	0.90~1.20	318		4	0	16%	90 % or more		

More lines, main results first:

Absorbance 300 nm [1]	Absorbance 350 nm [1]	Absorbance UVmax [1]	UVmax [1] [nm]	SMILES	histological comparison of skin of applied portion and skin of normal portion [2]	numbers of persons + (Almost no change) [3] [persons]	numbers of persons + (Clear sunburn was recognized) [4] [persons]	Inhibition ratio 10^-5 concentration [5]	Inhibition ratio 10^-4M concentration [5]	inhibition of swelling [6]	inhibition at 30 µM [7] [%]
0.55~0.70	0.85~1.10	1.10~1.30	365	CCOc1ccccc1/C=C/C(=O)c1ccc(O)cc1O [Example 7]				90 % or more	90 % or more		
0.20~0.40	0.60~0.75	0.80~0.95	364	CCOc1ccc(/C=C/C(=O)c2ccc(O)cc2O)cc1 [Example 6]		3	0	30%	90 % or more		
0.35~0.50	0.85~1.00	1.00~1.15	365	O=C(/C=C/c1ccc(O)c(O)c1)c1ccc(O)cc1 [Example 13]				84%	90 % or more		
0.40~0.55	0.90~1.00	0.80~1.10	352	Cc1ccc(/C=C/C(=O)c2ccc(O)cc2O)cc1 [Example 9]		4	0	25%	90 % or more		
0.60~0.75	0.75~0.90	0.80~0.90	320	O=C(/C=C/c1ccc([N+](=O)[O-])cc1)c1ccc(O)cc1O [Example 11]				62%	90 % or more		
0.85~1.00	1.15~1.30	1.20~1.40	322	O=C(/C=C/c1ccc(Cl)cc1)c1ccc(O)cc1O [Example 10]				32%	90 % or more		
0.30~0.45	0.85~1.00	0.90~1.00	355	O=C(/C=C/c1ccc2c(c1)OCO2)c1ccc(O)cc1 [Example 12]					90 % or more		
1.40~1.50	0.75~0.85	1.80~2.10	318	O=C(/C=C/c1ccccc1)c1ccc(O)cc1 [Example 8]				64%	90 % or more		
